Reference: patent US20200360365A1, “SUBSTITUTED HALO-QUINOLINE DERIVATES FOR USE IN THE TREATMENT OF LYMPHOMAS AND LEUKEMIA” (Instutut National de la Sante et de la Researche Medicale, priority 2018, published 2020)
Read-outs that look alike come from different tables or passages of the source.

How the values were obtained:
melanoma cell line A375 = assay: In vitro dose response study, A375 proliferation; format: cell-based, human; conditions: A375, 96h; for IC50: Homo sapiens, A-375, graded concentration, cell concentration
Experimental: The melanoma cell line A375 was treated during 96h with graded concentration of compounds 5, 38, 42 and 43. At the end of the culture period, the cell concentration was determined.

NIK = NIK (Homo sapiens, UniProt Q99558); conditions: patent PCT/EP2017/067306; cited from earlier work
[1] = tested on: plck-GAPDH tumor (AITL-like lymphoma) engrafted in NSG mice; assay: Treatment of plck-GAPDH AITL lymphoma engrafted NSG mice; format: in vivo, mouse
Experimental: Tumor Transplantation into NOD/SCIDγc−/− (NSG) Mice
Single cell suspensions from spleen or lymph nodes of old (>18 months) plck-GAPDH mice with splenomegaly were injected intravenously (i.v.) into 6-8 week old NSG mice (1-2E7 splenocytes per mouse). Recipient mice were sacrificed for evaluation when the mice became weak and/or splenomegaly could be detected (30 to 60 days after injection). The different hematopoietic organs (liver, spleen, blood) were isolated and single cell suspension prepared for FACS analysis (see below).
Treatment with NIK Inhibitor
Plck-GAPDH tumors were injected into 10 NSG mice (see above) and 5 were treated with a newly developed chemical NIK inhibitor (compound 5 according to the invention) or with Vehicle. IP injections were performed every other day with compound 5 (250 μg in 100 μl DMSO/Tween-20/Labrafil) or vehicle (100 μl DMSO/Tween-20/Labrafil). The second NIK inhibitor used (compound 38 according to the invention) was more soluble and IP injections were performed every other day with compound 38 (250 μg in 100 μl NaCl 0,9%/mouse) or vehicle (100 μl NaCl 0,9%/mouse).
Two different plck-GAPDH tumors expressing high levels of PD-1 on the CD4^+ T cells were injected into 10 NSG mice and the mice were treated with anti-PD1 antibody (clone PMP1-14, BioXcell; 125 μg in PBS/mouse) or an isotope control antibody daily for the first 2 days post-tumor injection, then every other day.
Combined anti-PD1 and NIK Inhibitor Treatment
The mice were injected with antibody (anti-PD1 or isotype control) in the morning and compound 38 according to the invention (injected in the evening) daily for the first 2 days plck-GAPDH post-tumor injection, then every other day. Same concentration as for single treatments was used.
Recipient mice were sacrificed at endpoint (>10% weight loss or palpable splenomegaly). Single cell suspensions were prepared from the spleen, BM and liver for immunophenotypic FACS analysis.

Solubility = format: physicochemical
[2] = tested on: human Diffuse large B-cell lymphoma (DLBCL) B cell lines (U2932, KARPAS 422, SUDHL6, OCYL3); assay: B cell lymphoma proliferation assay; format: cell-based; conditions: 10 μM, 96 h
Experimental: B Cell Lymphoma Proliferation Assay
The tested cancer cells are the following: the human Diffuse large B-cell lymphoma (DLBCL) cell lines: Karpas-422, SUDHL-6, U2932 and Oxyl3.
Cells were counted using a flow cytometer (MACQUANT, Miltenyi). 2E5 cells were seeded in 2 ml RPMI-GlutamaX supplemented with 10% FCS at start of the proliferation assay in a 6-well plate supplemented with the NIK Inhibitor (compound 38) at 10 μM for 96 h. The cell numbers at 96h were then determined by counting using a flow cytometer. We distinguished dead and living cells using DAPI staining.
Proliferation was calculated as followed:
Proliferation (%)=(Treated cell number/untreated cells)*100.
The average and standard deviation were determined from 3 independent experiments.

[3] = tested on: pancreas carcinoma (MiaPaca 2); assay: Cancer cell proliferation assay (trypan blue exclusion), MiaPaca-2; format: cell-based, human; conditions: 10 μM; proliferation normalized to DMSO-treated control
Experimental: (§1) Cancer cell proliferation assay (A375, A549, PC3, HT-29, MiaPaca-2 and MCF-7)
(§2) The tested cancer cells are the following: human melanoma cells (A375), lung carcinoma cells (A549), prostate cancer cells (PC3), colon adenocarcinoma (HT29), pancreas carcinoma (MiaPaca 2) and breast carcinoma (MCF-7).
(§3) Cells were counted using a Malassez chamber. The average and standard deviation were calculated from triplicate experiments. Antiproliferative effects were evaluated by trypan blue exclusion assay. Briefly, cells were seeded into 12-well plate and grown in media supplemented with indicated compound at 1 or 10μM for 48h or 96h. Cells were washed with PBS and detached by trypsinization, collected and colored by trypan blue.
(§4) Dead and living cells were counted and proliferation was calculated as follow: Proliferation (%)=[(treated cell number/untreated cells number)*100].
(§5) As a comparison, cell viability was also determined and calculated as follow: Viability (%)=100−[(dead cell number/total cells)*100].

[4] = tested on: colon adenocarcinoma (HT29); assay: Cancer cell proliferation assay (trypan blue exclusion), HT29; format: cell-based, human; conditions: 10 μM; proliferation normalized to DMSO-treated control
Experimental: as §1, §2, §3, §4, §5

[5] = tested on: EZH2 mRNA in A375 cancer cells; assay: Quantitative RT-PCR analysis of EZH2 gene expression; format: cell-based, human; conditions: 10 μM, 96 h
Experimental: (§6) Quantitative RT-PCR Analysis of EZH2 and p21 Gene Expression
(§7) Total RNA was isolated from cells using the RNAeasy minikit (Qiagen) according to the manufacturer's procedure. Reverse transcription was performed using the AMV reverse transcription system (Promega), and quantitative PCR was performed with Power Sybr green (Applied Biosystems, Life Technologies, Grand Island, N.Y.) following the manufacturer's instructions. The PCR was carried out on a Step One plus Real-Time PCR system (Applied Biosystems). All analyses were done in triplicate, and a melting curve analysis was performed to control for product quality and specificity. Expression levels were calculated using the comparative method of relative quantification, with SB34 as a normalizer. The data were analyzed for statistical significance using Student's t-test. The results are presented as the mean±SEM relative to the control.
(§8) PCR primers for EZH2 (accession number NM004456.4) and p21(CDKN1A) (accession number NM078467.2) were obtained from primer bank or primer depot (http://pga.mgh.harvard.edu/primerbank/, https://primerdepot.nci.nih.gov), and their specificity was verified using primer blast (http://www.ncbi.nlm.nih.gov/tools/primer-blast/).

[6] = tested on: lung carcinoma cells (A549); assay: Cancer cell proliferation assay (trypan blue exclusion), A549; format: cell-based, human; conditions: 10 μM; proliferation normalized to DMSO-treated control
Experimental: as §1, §2, §3, §4, §5

[7] = tested on: senescence-associated β-galactosidase (SA-β-Gal); assay: Quantitative senescence-associated beta-galactosidase assay; format: cell-based; conditions: SA-β-Gal 4-MUG cleavage; relative to DMSO-treated control
Text: Quantitative Senescence-Associated Beta-Galactosidase Assay
The production of the fluorophore was monitored at an […] wavelength of 365/460 nm, as reported (Gary and Kindell, 2005)

[8] = tested on: IFN-γ in supernatant of A375 cancer cells; assay: ELISA measurement of IFN-γ in supernatant; format: cell-based, human; conditions: 10 μM, 96 h
Experimental: Supernatant from cells treated for 96 h was tested for human or mouse IFN-γ content via ELISA (peprotech, cat 900-k27 and 900-k98) kit following the manufacturer's instructions.

[9] = tested on: human melanoma cells (A375); assay: Cancer cell proliferation assay (trypan blue exclusion), A375; format: cell-based; conditions: 10 μM; proliferation normalized to DMSO-treated control
Experimental: as §1, §2, §3, §4, §5

breast carcinoma (MCF-7) = assay: Cancer cell proliferation assay (trypan blue exclusion), MCF-7; format: cell-based, human; conditions: 10 μM; proliferation normalized to DMSO-treated control
Experimental: as §1, §2, §3, §4, §5

[10] = tested on: p21 (CDKN1A) mRNA in A375 cancer cells; assay: Quantitative RT-PCR analysis of p21 gene expression; format: cell-based, human; conditions: 10 μM, 96 h
Experimental: as §6, §7, §8

human melanocytes (MHN) = assay: Melanocyte viability assay (MHN); format: cell-based; conditions: 10 μM, 96 h; viability normalized to DMSO-treated control
Experimental: Melanocyte Viability Assay (MHN)
Cell viability effects were evaluated by trypan blue exclusion assay. Briefly, cells were seeded into 12-well plate and grown in media supplemented with indicated compound at 10 μM for 96 h. Cells were washed with PBS and detached by trypsinization, collected and colored by trypan blue. Dead and living cells were counted and cell viability was calculated as follow: Viability (%)=100−[(dead cell number/total cells)*100].

[11] = tested on: prostate cancer cells (PC3); assay: Cancer cell proliferation assay (trypan blue exclusion), PC3; format: cell-based, human; conditions: 10 μM; proliferation normalized to DMSO-treated control
Experimental: as §1, §2, §3, §4, §5

[12] = Microsomal stability (mouse liver microsomes); format: in vitro ADME; conditions: mouse liver microsomes 0.5 mg/mL, NADPH 1 mM, 37° C.
Experimental: Microsomal Stability (Mouse Liver Microsomes)
Microsomal stability was evaluated with mouse liver microsomes (0.5 mg/mL) and NADPH cofactor (1 mM) at 37° C. The percentage of remaining compound is determined at 5 min by LC-MS by measuring the area under the peak of compound on the chromatogram.

[13] = plck-GAPDH tumor engrafted NSG mice

Sequence of NIK (Q99558 whole entry): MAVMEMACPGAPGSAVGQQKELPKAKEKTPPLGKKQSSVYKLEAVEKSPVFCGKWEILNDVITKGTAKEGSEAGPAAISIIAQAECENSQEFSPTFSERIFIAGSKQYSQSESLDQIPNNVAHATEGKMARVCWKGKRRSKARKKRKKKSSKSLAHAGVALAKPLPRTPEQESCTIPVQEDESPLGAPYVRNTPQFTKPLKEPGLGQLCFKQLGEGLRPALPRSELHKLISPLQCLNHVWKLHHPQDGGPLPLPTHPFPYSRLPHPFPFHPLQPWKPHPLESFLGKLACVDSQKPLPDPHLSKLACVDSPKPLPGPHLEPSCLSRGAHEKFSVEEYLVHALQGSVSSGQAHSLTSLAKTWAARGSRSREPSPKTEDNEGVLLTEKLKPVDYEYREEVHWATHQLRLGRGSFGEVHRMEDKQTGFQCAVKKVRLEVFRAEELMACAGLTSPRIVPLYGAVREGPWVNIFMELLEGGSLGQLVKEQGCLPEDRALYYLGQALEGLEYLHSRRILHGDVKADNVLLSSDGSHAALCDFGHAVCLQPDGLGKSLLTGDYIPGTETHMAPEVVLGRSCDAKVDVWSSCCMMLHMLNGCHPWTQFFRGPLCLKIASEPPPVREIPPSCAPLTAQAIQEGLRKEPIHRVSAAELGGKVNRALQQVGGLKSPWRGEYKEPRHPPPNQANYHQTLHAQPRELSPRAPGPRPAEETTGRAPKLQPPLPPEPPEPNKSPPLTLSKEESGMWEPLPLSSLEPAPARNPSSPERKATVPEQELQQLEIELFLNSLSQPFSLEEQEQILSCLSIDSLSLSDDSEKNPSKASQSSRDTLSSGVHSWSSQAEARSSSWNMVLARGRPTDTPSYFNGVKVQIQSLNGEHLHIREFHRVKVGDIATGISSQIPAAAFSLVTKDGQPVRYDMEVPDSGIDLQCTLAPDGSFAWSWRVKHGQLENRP

SMILES | concentration at which inhibition of A375 proliferation starts (melanoma cell line A375) | IC50 (melanoma cell line A375) | anti-NIK activity (NIK) | Cancer Cell Proliferation MiaPaca-2 [3] | Cancer Cell Proliferation HT29 [4] | qPCR EZH2 A375 mRNA [5] | Cancer Cell Proliferation A549 [6] | % Senescence, conversion rate [7] | ELISA IFN-γ (A375), IFN-γ concentration [8] | Cancer Cell Proliferation A375 [9] | Cancer Cell Proliferation MCF-7 (breast carcinoma (MCF-7)) | qPCR p21 A375 mRNA [10] | Cancer Cell Proliferation PC3 [11] | other results
COc1ccc(Nc2ccnc3cc(Cl)ccc23)cc1 [Compound 5, N-(4-methoxyphenyl)-7-chloroquinolin-4-amine] | around 5 mM | 1330 nM | confirmed its activity in vitro | – | – | – | – | – | – | – | – | – | – | GC B cells in the spleen at sacrifice [1, 13]: completely devoid of GC B cells; survival of tumor engrafted NSG mice as compared to the control group ([1]; plck-GAPDH tumor engrafted NSG mice, IP treatment day 1 and 2, then every other day): significant increased survival
COc1ccc(Nc2ccnc3cc(Cl)ccc23)cc1OC [Compound 38, N-(3,4-dimethoxyphenyl)-7-chloroquinolin-4-amine] | around 5 mM | 560 nM | potent | – | – | – | – | – | – | – | – | – | – | solubility (Solubility): more soluble; solubility (Solubility; listed as COMPONENT 38): high solubility; proliferation of B cell lymphoma cancer cell lines compared with controls (DMSO) [2]: strong inhibitory effect; cell viability of B cell lymphoma cell lines ([2]; data not shown): without affecting the cell viability; survival of the plck-GAPDH tumor engrafted mice ([1]; NSG mice, compound 38 250 μg IP, anti-PD1 125 μg, every other day): up to 60%; B cells in the spleen at sacrifice [1, 13]: highly significant decrease; CD4+ T cells in the spleen [1, 13]: strong reduction; Tfh PD1high CD4+ population in the spleen [1, 13]: residual subpopulation; spleen size at sacrifice compared to controls [1, 13]: significant decrease in spleen size; CD8 cytotoxicity (IFNγ, granzyme B, perforin by cytotoxic CD8+ cells) ([1]; splenocytes at sacrifice, PMA/ionomycin 5 h): increasing CD8 IFNγ release
COCCOc1ccc(Nc2ccnc3cc(Cl)ccc23)cc1 [Compound 42, 7-chloro-N-(4-(2-methoxyethoxy)phenyl)quinolin-4-amine] | around 5 mM | – | – | 7.8% | 3.5% | 0.23 fold relative to DMSO-treated control | 19.5% | 645.9% | 1.73 (ng/mL)/millions cells | 6.9% | 11.9% | 6.79 fold relative to DMSO-treated control | 14.1% | Heathly Cell Viability MHN (human melanocytes (MHN)): 99.0%
COc1ccc(Nc2ccnc3cc(Cl)ccc23)cc1O [Compound 43, 7-chloro-N-(3-(hydroxy)-4-(methoxy)phenyl)quinolin-4-amine] | around 5 mM | – | – | 32.4% | 15.6% | 0.62 fold relative to DMSO-treated control | 51.1% | 1875.1% | 0.41 (ng/mL)/millions cells | 30.5% | 29.5% | 3.08 fold relative to DMSO-treated control | 55.0% | Microsomal stability, mouse liver (5 min), percentage of the remaining compound [12]: 41% ± 3; Microsomal stability, mouse liver (5 min), percentage of the remaining compound ([12]; listed as compound 43): 41%
